Source: article PMC3115501 (Archives of biochemistry and biophysics, 2011)
Marks after values point to notes of the source that are not given here.

Columns and labels:
CYP3A4 [1] = biological target: T1, CYP3A4 (Homo sapiens, UniProt P08684, S18F); conditions: cited from earlier work
CYP3A4 [2] = conditions: cited from earlier work
3A4 = 3A4 in the presence of testosterone, reduction by NADPH/P450 reductase; cited from earlier work
CYP3A4 [3] = biological target: T1, CYP3A4; assay: Redox potential measurements by cyclic voltammetry of purified CYP3A4; conditions: 11 μM 3A4 complexed with 200 μM TST or 100 μM compound 1

## CCC(C)n1ncn(-c2ccc(N3CCN(c4ccc(OCC5COC(Cn6cncn6)(c6ccc(Cl)cc6Cl)O5)cc4)CC3)cc2)c1=O (centres unmarked) [Itraconazole, itraconazole]
CYP3A4 [1]
  rate of dissociation from the low-spin complex: 0.002 s⁻¹
CYP3A4 [2]
  kcat: 0.0045 s⁻¹

## C[C@]12CC[C@H]3[C@@H](CCC4=CC(=O)CC[C@@]43C)[C@@H]1CC[C@@H]2O [Testosterone]
3A4
  reduction rate, reported value: 21 s⁻¹
CYP3A4 [3]
  ks (rate of electron transfer / rate constant for reduction): 5.6 s⁻¹
  α (electron transfer coefficient): 0.396
CYP3A4 [3]; Equation 1
  E^0 (formal potential): -189 (3) ^e mV
CYP3A4 [3]; equation 2
  ΔEp, ½: 157 (6) mV
CYP3A4 [3]; listed as TST
  ks (rate of electron transfer / rate constant for reduction): 5.56 s⁻¹
